The text below walks through data of PMC8041284, “Tunable Methacrylamides for Covalent Ligand Directed Release Chemistry” (Journal of the American Chemical Society, 2021).

For this experiment, the target named is BTK (Homo sapiens, UniProt Q06187). The experiment in a line: biochemical. The following applies: read-out: BTK inhibition (%), 0.75 uM BTK, […] probe 3l, 15 min preincubation.
Chain of BTK (Q06187 402-655 limits assumed): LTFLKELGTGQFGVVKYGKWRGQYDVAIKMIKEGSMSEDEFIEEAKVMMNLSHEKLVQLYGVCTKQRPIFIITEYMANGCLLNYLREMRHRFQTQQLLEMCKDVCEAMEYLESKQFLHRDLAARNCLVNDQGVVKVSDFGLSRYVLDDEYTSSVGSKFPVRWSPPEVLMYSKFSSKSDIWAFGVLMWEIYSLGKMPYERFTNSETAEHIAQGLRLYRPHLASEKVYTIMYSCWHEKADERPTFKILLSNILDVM

For `COC[C@H](NC(=O)c1cnc(C)s1)C(=O)N[C@@H](COC)C(=O)N[C@@H](Cc1ccccc1)C(=O)[C@@]1(C)CO1` [PCM-0095574], the inhibition (commonly the change of the read-out against control, counted positive when it falls) at 10 µM was -4.6%.

For the compound `O=S(=O)(O)Oc1ccc(C(c2ccc(OS(=O)(=O)O)cc2)c2ccccn2)cc1` [PCM-0095575], the inhibition at 10 µM was -12.5%.

For `Cc1ccc(C(=O)c2cc(O)c(O)c([N+](=O)[O-])c2)cc1` [PCM-0095576], the inhibition at 10 µM came to 38.1%.

On to `C[N+]1(C)C2CCC1CC(OC(=O)C(O)c1ccccc1)C2` (centres unmarked) [PCM-0095577], for which the inhibition at 10 µM is -9.3%.

Consider `CC(C)(CO)c1cc2cc(NC(=O)C3(c4ccc5c(c4)OC(F)(F)O5)CC3)c(F)cc2n1C[C@@H](O)CO` [PCM-0095580], for which the inhibition at 10 µM was -27.8%.

In the case of `CCOC(=O)CCNc1cc(N2CCc3ccccc3CC2)nc(-c2ccccn2)n1` [PCM-0095581], the inhibition at 10 µM was -0.8%.

Take `CC(C)[C@H]1C(=O)N[C@@H](CCCN=C(N)N)C(=O)NCC(=O)N[C@@H](CC(=O)O)C(=O)N[C@H](Cc2ccccc2)C(=O)N1C` [PCM-0095583]: the inhibition at 10 µM is -6.9%.

Consider `COc1ccc(CCC(=O)Nc2nc3ccc(Cl)cc3s2)cc1OC` [PCM-0095584], for which the inhibition at 10 µM is -0.8%.

Consider `Cc1ccc2c(c1)C(=O)[C@]1(O)CCN(c3ccccc3)C1=N2` [PCM-0095585], for which the inhibition at 10 µM was -6.9%.

As to `CC(=O)Nc1nc2c(Oc3cc(-c4ccc(C(F)(F)F)cc4)ncn3)cccc2s1` [PCM-0095587], the inhibition at 10 µM was 10.8%.

Consider `CCN1CC(CCN2CCOCC2)C(c2ccccc2)(c2ccccc2)C1=O` (centres unmarked) [PCM-0095590], for which the inhibition at 10 µM stood at 8.6%.

Consider `CC(=O)N=c1sc(S(N)(=O)=O)nn1C` [PCM-0095591], for which the inhibition at 10 µM was -7.8%.

On to `CCN(CC)C(=O)[C@]1(c2ccccc2)C[C@@H]1CN` [PCM-0095594], for which the inhibition at 10 µM amounted to 0.8%.

For `O=C(CCCCCCNC(=O)c1cnc(N(c2ccccc2)c2ccccc2)nc1)NO` [PCM-0095595], the inhibition at 10 µM was -18.5%.

For `Cc1c(Cn2c(C)nc3c(C(=O)O)cc(N4CCOCC4)cc32)cccc1C(F)(F)F` [PCM-0095596], the inhibition at 10 µM was -22.1%.

With `COc1ccc(Cl)cc1NC(=O)Nc1cc(C)nc2ccccc12` [PCM-0095597], the inhibition at 10 µM is 9%.

As to `O=C1NC(=O)/C(=C/c2cccc(C(F)(F)F)c2)S1` [PCM-0095598], the inhibition at 10 µM turned out to be 4.8%.

For the compound `CS(=O)(=O)c1ccc(-c2cnc(N)c(C(=O)Nc3ccccc3)n2)cc1` [PCM-0095599], the inhibition at 10 µM turned out to be 10.3%.

Consider `N#Cc1cc(CN2CCC(Nc3ncnc4sc(Cl)cc34)CC2)ccc1F` [PCM-0095600], for which the inhibition at 10 µM stood at 2.3%.

Regarding `CCNC1(C(N)=O)CCN(c2ncnc3c2nc(-c2ccccc2Cl)n3-c2ccc(Cl)cc2)CC1` [PCM-0095601], the inhibition at 10 µM was -17.9%.

Turning to `Cc1onc(-c2ccccc2)c1-c1ccc(S(N)(=O)=O)cc1` [PCM-0095602], the inhibition at 10 µM is -38.6%.

On to `C=C[C@]1(C)C[C@@H](OC(=O)CSC2C[C@H]3CC[C@@H](C2)N3C)[C@]2(C)[C@H](C)CC[C@]3(CCC(=O)[C@H]32)[C@@H](C)[C@@H]1O` (some centres unmarked) [PCM-0095603], for which the inhibition at 10 µM turned out to be 3.9%.

With `CN1C(CCl)Nc2cc(Cl)c(S(N)(=O)=O)cc2S1(=O)=O` (centres unmarked) [PCM-0095604], the inhibition at 10 µM was -2.3%.

As to `COc1cc2ncnc(Oc3cccc(NC(=O)Nc4cc(C(C)(C)C(F)(F)F)on4)c3)c2cc1OC` [PCM-0095605], the inhibition at 10 µM is 4.1%.

Consider `CNCc1cc(-c2ccccc2F)n(S(=O)(=O)c2cccnc2)c1` [PCM-0095606], for which the inhibition at 10 µM came out at 17%.

For `NC1(C(=O)N[C@@H](CCO)c2ccc(Cl)cc2)CCN(c2ncnc3[nH]ccc23)CC1` [PCM-0095607], the inhibition at 10 µM stood at 33.1%.

As to `Cc1cc(SCc2sc(-c3ccc(C(F)(F)F)c(F)c3)nc2C)ccc1OCC(=O)O` [PCM-0095608], the inhibition at 10 µM is -5.4%.

As to `Cc1ccc(Sc2ccccc2N2CCNCC2)c(C)c1` [PCM-0095609], the inhibition at 10 µM is -6.9%.

Consider `OC[C@H]1O[C@@H](c2ccc(Cl)c(Cc3ccc(O[C@H]4CCOC4)cc3)c2)[C@H](O)[C@@H](O)[C@@H]1O` [PCM-0095610], for which the inhibition at 10 µM was 12.4%.

For `COc1ccc(C(=O)Nc2sc3c(c2C(N)=O)CCCC3)cc1OC` [PCM-0095611], the inhibition at 10 µM is 6.9%.

For `COc1cc2ncc(-c3ccccc3)nc2cc1OC` [PCM-0095612], the inhibition at 10 µM was -13.8%.

On to `CCCN1CCCC[C@H]1C(=O)Nc1c(C)cccc1C` [PCM-0095613], for which the inhibition at 10 µM is -24.9%.

For `C=CC[C@]1(O)CC[C@H]2[C@@H]3CCC4=CC(=O)CCC4=C3C=C[C@@]21C` [PCM-0095614], the inhibition at 10 µM is -4.7%.

Regarding `COc1cc2c(cc1OC)CN(CCc1ccc(NC(=O)c3cc(OC)c(OC)cc3NC(=O)c3cnc4ccccc4c3)cc1)CC2` [PCM-0095616], the inhibition at 10 µM was 4.6%.

Regarding `Cc1cccc(Nc2cc(Cl)nc(SCC(=O)O)n2)c1C` [PCM-0095617], the inhibition at 10 µM came to 7.7%.

As to `NC(=O)c1cnc(N[C@@H]2CCCC[C@@H]2N)nc1Nc1cccc(-n2nccn2)c1` [PCM-0095619], the inhibition at 10 µM was found to be 70.3%.

`CCOc1cc([C@@H](CS(C)(=O)=O)N2C(=O)c3cccc(NC(C)=O)c3C2=O)ccc1OC` [PCM-0095620]: the inhibition at 10 µM came to 9%.

As to `O=C(Nc1ccc(S(=O)(=O)Nc2ccccc2Cl)c(Cl)c1)c1ccccn1` [PCM-0095621], the inhibition at 10 µM is -21.6%.

For `O=C(/C=C/c1ccc(O)c(O)c1)c1ccc(O)cc1O` [PCM-0095622], the inhibition at 10 µM came out at 55.2%.

Consider `O=C(COc1cccc2c(=O)[nH]ccc12)c1ccccc1` [PCM-0095624], for which the inhibition at 10 µM is 5.4%.

In the case of `CC1(C)S[C@@H]2[C@H](NC(=O)[C@H](NC(=O)N3CCNC3=O)c3ccccc3)C(=O)N2[C@H]1C(=O)O` [PCM-0095627], the inhibition at 10 µM was found to be 30.4%.

In the case of `CCCSc1nc(N[C@@H]2C[C@H]2c2ccc(F)c(F)c2)c2nnn([C@@H]3C[C@H](OCCO)[C@@H](O)[C@H]3O)c2n1` [PCM-0095628], the inhibition at 10 µM is -34.2%.

In the case of `CCNC(=O)Nc1ccc(-c2nc3c(c(N4CCOC[C@@H]4C)n2)CCN(C2COC2)C3)cc1` [PCM-0095629], the inhibition at 10 µM was 3.4%.

Turning to `COc1ccc(COc2ccc(Cc3cnc(N)nc3N)cc2OC)cc1` [PCM-0095630], the inhibition at 10 µM was -7.6%.

Consider `O=C(CCCCCN1C(=O)c2cccc3cccc(c23)C1=O)NO` [PCM-0095631], for which the inhibition at 10 µM turned out to be 7.7%.

As to `CC1(C)CCC(CN2CCN(c3ccc(C(=O)NS(=O)(=O)c4ccc(NCC5CCOCC5)c([N+](=O)[O-])c4)c(Oc4cnc5[nH]ccc5c4)c3)CC2)=C(c2ccc(Cl)cc2)C1` [PCM-0095632], the inhibition at 10 µM was -5.4%.

Consider `CCCNS(=O)(=O)Nc1ncnc(OCCOc2ncc(Br)cn2)c1-c1ccc(Br)cc1` [PCM-0095633], for which the inhibition at 10 µM was determined as 10%.

As for `CCOc1ccccc1O[C@H](c1ccccc1)[C@H]1CNCCO1` [PCM-0095634], the inhibition at 10 µM was -7%.

As to `C[C@]12CC[C@@H]3c4ccc(OC(=O)c5ccccc5)cc4CC[C@H]3[C@@H]1CC[C@@H]2O` [PCM-0095636], the inhibition at 10 µM was -7.8%.

For the compound `Nc1ccc2ncnc(NCCc3ccc(Oc4ccccc4)cc3)c2c1` [PCM-0095674], the inhibition at 10 µM was -4.1%.

`Cc1[nH]c2ccccc2c1CCNCc1ccc(/C=C/C(=O)NO)cc1` [PCM-0095679]: the inhibition at 10 µM was 0.8%.

Turning to `CC(C)(C)c1[nH]cnc1/C=c1\[nH]c(=O)/c(=C/c2ccccc2)[nH]c1=O` [PCM-0095681], the inhibition at 10 µM was -2.1%.

As for `Cc1ccc2c(c1)c1c(n2CCc2ccc(C)nc2)CCN(C)C1` [PCM-0095683], the inhibition at 10 µM was 6.2%.

Turning to `Oc1ccc(Nc2nc(-c3ccc(Cl)cc3)cs2)cc1` [PCM-0095692], the inhibition at 10 µM worked out at 84.8%.

For the compound `NC(=O)c1noc([C@H](CCCC2CCCCC2)CC(=O)NO)n1` [PCM-0095693], the inhibition at 10 µM came to 10.1%.

As to `Cn1cc(-c2ccncc2)c(-c2ccc(OCc3ccc4ccccc4n3)cc2)n1` [PCM-0095695], the inhibition at 10 µM was -33.5%.

`O=C1NC(=O)[C@@H](c2cn3c4c(cccc24)CCC3)[C@@H]1c1c[nH]c2ccccc12` [PCM-0095697]: the inhibition at 10 µM was 29%.

For the compound `O[C@@H](CNC[C@H](O)[C@H]1CCc2cc(F)ccc2O1)[C@@H]1CCc2cc(F)ccc2O1` [PCM-0095721], the inhibition at 10 µM is -14%.

`CNC(=O)[C@H](Cc1c[nH]c2ccccc12)NC(=O)[C@@H](CC(=O)NO)CC(C)C` [PCM-0095723]: the inhibition at 10 µM is 19.3%.

On to `O=C(NCc1cccc(O)c1)Nc1nc(-c2ccncc2)cs1` [PCM-0095724], for which the inhibition at 10 µM is -4.8%.

`CCOC(=O)c1ccc(NC2CCCCC2)c(N)c1` [PCM-0095725]: the inhibition at 10 µM came to 31.7%.

As for `CCC(=O)Nc1cccc(Oc2nc(Nc3ccc(N4CCN(C)CC4)cc3OC)ncc2Cl)c1` [PCM-0095726], the inhibition at 10 µM was -2.1%.

With `Cc1sc2c(c1C)C(c1ccc(Cl)cc1)=N[C@@H](CC(=O)Nc1ccc(O)cc1)c1nnc(C)n1-2` [PCM-0095727], the inhibition at 10 µM was found to be 3.1%.

With `Nc1ncnc2n[nH]c(Nc3ccc(F)cc3)c12` [PCM-0095728], the inhibition at 10 µM was determined as 37.9%.

With `Cc1cccc(CC(=O)N2CCc3c2ccc(-c2cn(C)c4ncnc(N)c24)c3F)n1` [PCM-0095729], the inhibition at 10 µM is -9%.

With `O=c1cc(CN2CCOCC2)occ1OCCCCCSc1ccnc2cc(C(F)(F)F)ccc12` [PCM-0095730], the inhibition at 10 µM is -34.7%.

Turning to `N[C@@H]1CCCN(c2c(/C=C3\SC(=O)NC3=O)cccc2-c2ccccc2)C1` [PCM-0095732], the inhibition at 10 µM stood at 4.1%.

`CC(=O)O/N=C1\C(=O)N(Cc2cc(Cl)ccc2Cl)c2ccc(Cl)cc21` [PCM-0095733]: the inhibition at 10 µM was 28.6%.

For the compound `CN(C)CC[C@H](CSc1ccccc1)Nc1ccc(S(=O)(=O)NC(=O)c2ccc(N3CCN(Cc4ccccc4-c4ccc(Cl)cc4)CC3)cc2)cc1[N+](=O)[O-]` [PCM-0095734], the inhibition at 10 µM was 19.3%.

For `CCN1CCN(Cc2ccc(Nc3ncc(F)c(-c4cc(F)c5nc(C)n(C(C)C)c5c4)n3)nc2)CC1` [PCM-0095736], the inhibition at 10 µM is -12.4%.

For the compound `CN(C)CCCn1cc(C2=C(c3c[nH]c4ccccc34)C(=O)NC2=O)c2ccccc21` [PCM-0095737], the inhibition at 10 µM was found to be 47.6%.
